Values after ≈ are worked out from the molar mass of the structure shown. “Also recorded” adds a separate entry of the source. Counter-ions that a name gives are not always drawn.
How the values were obtained:
[1] = test system: blood-tumor barrier of RG2 glioma tissue; assay: Unidirectional transfer constant Ki for [14C]AIB across the blood-tumor barrier, quantitative autoradiography after intracarotid infusion; type: in vivo, Wistar rats; settings: for unidirectional transport constant Ki for [14C]α-aminoisobutyric acid (AIB) across the blood-tumor barrier: RG2 glioma-bearing Wistar rats, intracarotid 7.5 μg kg^−1 min^−1 for 15 minutes
Excerpt: Malignant Cell Line and Tumor Implantation. A rat glioma cell line, RG2, was used for implantation of experimental brain tumors in Wistar rats. The techniques for RG2 cell propagation and maintenance in tissue culture have been described (Sugita, M. and Black, K. L., Cyclic GMP-specific phosphodiesterase inhibition and intracarotid bradykinin infusion enhances permeability into brain tumors, Cancer Res. 58(5):914-20 [1998]; Inamura et al. [1994]; Nakano, S. et al., Increased brain tumor microvessel permeability after intracarotid bradykinin infusion is mediated by nitric oxide, Cancer Res. 56(17):4027-31 [1996]). Briefly, RG2 cells derived from a rat glioma are kept frozen until use, then are thawed and maintained in a monolayer culture in F12 medium with 10% calf serum.
The Wistar rats (approximately 140-160 g body weight) were anesthetized with intra-peritoneal ketarnine (50 mg/kg), and glial cells (1×10^5) were implanted into the right hemisphere, but not the contralateral hemisphere, by intracerebral injection suspended in 5 μL F12 medium,(1-2% methylcellulose) by.a Hamilton syringe. The implantation coordinates were 3-mm lateral to the bregrna and 4.5 mm deep to the dural surface.
Intracarotid Infusion of Potassium Channel Activators. Seven days after implantation of RG2 cells, the rats were anesthetized as described above and prepared for permeability studies. Animals were infused with either NS-1619 (a selective large conductance Ca^2+- activated K^+ channel activator; […]; 5% (v/v) ethanol. Ethanol (25% [v/v]) was used to dissolve. the potassium channel agonists before.dilution in PBS. For blood volume studies, 5 and 14 minutes after the start of the intracarotid infusion of potassium channel agonist compounds, [^14C] Dextran (100 μCi/kg; Dupont-New England Nuclear Co., Boston, Mass.) was injected as an intravenous bolus and maintained for 1 minute and 10 minutes to obtain two different time points. For regional permeability studies, 5 minutes after the start of the intracarotid infusion of vasoactive compounds, 100 μCi/kg of [^14C]α-aminoisobutyric acid (Dupont-New England Nuclear Colo., Boston, Mass.) was injected as an intravenous bolus. A peristaltic withdrawal pump was used to withdraw femoral arterial blood at a constant rate of 0.083 mL/min immediately after the injection of the tracer to determine serum radioactivity. Fifteen minutes after the intracarotid infusion, rat decapitated and the brain rapidly removed and frozen for quantitative autoradiography.
Unidirectional Transport Constant (Ki). The unidirectional transfer constant Ki for [^14C]α-aminoisobutyric acid was measured in normal tissue and tumor tissue as an indicator of permeability across the blood-tumor and blood-brain barriers. Quantitative autbradiography was. used to obtain Ki values (μL g^−1min^−1). The initial rate for blood-to-brain transfer was calculated using a previously described equation. (Ohno, K, et al., Lower limits of cerebrovascular permeability to nonelectrolytes in the conscious rat, Am. J. Physiol. 235(3):H299-307, [1978]; Inamura, T., et al., Bradykinin selectively opens blood-tumor barrier in experimental brain rumors, J. Cereb. Flow Metab. 14(5):862-70 [1994]). Quantitative data were analyzed using, two group t-test and two-group Fisher's-exact test of equal proportions or equal means (equal numbers) at 90% power requires a minimum of 6 animals in each group to achieve statistical significance. Multiple treatment groups were compared with control group by ANOVA and P values determined by post-hoc Bonferroni test.
Dose-dependence studies. NS-1619 was dissolved in 25% ethanol and diluted with PBS to obtain various concentrations for infusion. […]

brain tumor capillaries = settings: intracarotid infusion, cited from earlier work
[2] = cited from earlier work
[3] = Arterial blood pressure monitored during intracarotid infusion; type: in vivo; settings: rats; higher doses (100 and 110 μg/kg/min)
Description: Dose-dependence studies. NS-1619 was dissolved in 25% ethanol and diluted with PBS to obtain various concentrations for infusion. NS-1619 was administered by intracarotid infusion (dose rates: 0, 13, 26.5, 53, 80, 100 and 110 μg kg^−1 min^−1; all at 53.3. μL/min) to RG2 glioma-bearing rats to determine a dose that produces increased permeability (Ki) of (^14C]-AIB, which was administered intravenously. Ki determined as described above. Physiological parameters were monitored during the experiments.

## IBTX: specific KCa channel inhibitor, iberiotoxin (QFTDVDCSVSKECWSVCKDLFGVDRGKCMGKKCRCYQ; Iberiotoxin; UniProt P24663 1-37, looked up)
[1]; IBTX 2.3 μg kg^−1 min^−1, 15 minutes, n=3
  brain-tumor barrier permeability of abnormal capillaries, IBTX alone: did not affect
[1]; IBTX 2.3 μg kg^−1 min^−1 with NS-1619 26.5 μg kg^−1 min^−1, n=3, P<0.001 vs NS-1619-treated group
  effect of IBTX co-infusion on NS-1619-induced increase of permeability (Ki): decreased NS-1619-induced increase of permeability

## CCCCC/C=C\C\C=C/C=C/C=C/[C@@H](SC[C@H](NC(=O)CC[C@H](N)C(=O)O)C(=O)NCC(=O)O)[C@@H](O)CCCC(=O)O [LTC4, leukotriene C4]
Brain tumor capillaries
  permeability in normal brain capillaries: without affecting the permeability
Brain tumor capillaries; effect limited to small molecules
  permeability in brain tumor capillaries: selectively increases the permeability

## Nc1cc(N2CCCCC2)nc(N)[n+]1OS(=O)(=O)[O-] [minoxidil sulfate]
[2]
  solubility in water: not easily dissolved in water
[1]
  unidirectional transport constant Ki for [14C]α-aminoisobutyric acid (AIB) across the blood-tumor barrier: significantly increased

## O=c1[nH]c2cc(C(F)(F)F)ccc2n1-c1cc(C(F)(F)F)ccc1O [NS-1619, 1,3-dihydro-1-[2-hydroxy-5-(trifluoromethyl)phenyl]-5-(trifluoromethyl)-2H-benzimidazol-2-one]
[3]
  arterial blood pressure: a significant drop in the arterial blood pressure
[2]
  solubility in water: not easily dissolved in water
[1]; 15 minutes, n=8, P<0.001
  Ki for [14C]AIB in RG2 tumor, NS-1619 26.5 μg kg^−1 min^−1 vs PBS with or without 5% ethanol: Increase of Ki
[1]
  unidirectional transport constant Ki for [14C]α-aminoisobutyric acid (AIB) across the blood-tumor barrier: significantly increased
[1]; intracarotid dose rates 0, 13, 26.5, 53, 80, 100 and 110 μg kg^−1 min^−1
  dose-response of Ki for [14C]AIB in RG2 glioma capillaries: increasing the dose of NS-1619 results in an increase

## CC(N/C(=N\C#N)Nc1ccncc1)C(C)(C)C (racemic) [pinacidil, (±)-N-cyano-N′-4-pyridinyl-N″-(1,2,2-trimethylpropyl)-guanidine]
[2]; ethanol
  solubility in ethanol: 14 mg/mL (≈ 57.1 mM)
[2]
  solubility in water: insoluble in water; also recorded: not easily dissolved in water

## CC1=NS(=O)(=O)c2cc(Cl)ccc2N1 [diazoxide]
[2]
  solubility in water: not easily dissolved in water

— patent publication US20050095196A1, “Method for using potassium channel agonists for delivering a medicant to an abnormal brain region and/or a malignant tumor” (priority 2003, published 2005)
